Experimental findings from ChEMBL document CHEMBL4765318 (Eur J Med Chem, 2020) are described below.

Each structure is given as a SMILES string. Active and inactive are the calls of the source. The rule behind the calls is not given here. Bounds are passed on as bounds.

One experiment has as its system Raji. Kind of experiment: Antiproliferative activity against human Raji cells assessed as reduction in cell viability incubated for 24 hrs by CCK-8 assay. In kind it is functional, cell-based.
For experiment [1], the system named is Ramos. Kind of experiment: Antiproliferative activity against human Ramos cells assessed as reduction in cell viability incubated for 24 hrs by CCK-8 assay. The format is functional, cell-based. Background: Formazan colour is commonly taken as a measure of viable cells.
Experiment [2] has as its target T1, Tyrosine-protein kinase BTK (Homo sapiens, UniProt Q06187). The settings on record: dose 100.0 nM.
Description: Inhibition of BTK (unknown origin) at 100 nM by ADP-Glo assay relative to control
Experiment [3] has as its target T1, Tyrosine-protein kinase BTK. Kind of experiment: Inhibition of BTK (unknown origin) by ADP-Glo assay. In general terms: ADP-Glo turns the ADP formed in a reaction into a luminescent signal.
Experiment [4] has as its system Ramos. Briefly: Induction of apoptosis in human Ramos cells assessed as viable cells at 5 uM incubated for 24 hrs by annexin V-FITC and PI staining based flow cytometry analysis (reference value: 93.8 %). The format is functional. (In general: A flow cytometer gives signals particle by particle.)
For experiment [5], the system named is Ramos. Briefly: Induction of apoptosis in human Ramos cells assessed as early apoptotic cells at 5 uM incubated for 24 hrs by annexin V-FITC and PI staining based flow cytometry analysis (reference value: 1.9 %). The format is functional.
Experiment [6] concerns Ramos. Kind of experiment: Induction of apoptosis in human Ramos cells assessed as late apoptotic cells at 5 uM incubated for 24 hrs by annexin V-FITC and PI staining based flow cytometry analysis (reference value: 2.2 %). In kind it is functional.
For experiment [7], the system named is Ramos. Briefly: Induction of apoptosis in human Ramos cells assessed as necrotic cells at 5 uM incubated for 24 hrs by annexin V-FITC and PI staining based flow cytometry analysis (reference value: 2.1 %). The format is functional.
Experiment [8] concerns Ramos. Briefly: Induction of cell cycle arrest in human Ramos cells assessed as G0/G1 phase accumulation at 5 uM incubated for 24 hrs by PI staining based flow cytometry analysis (reference value: 39.13 %). In kind it is functional.
In experiment [9] the test system is Ramos. Kind of experiment: Induction of cell cycle arrest in human Ramos cells assessed as S phase accumulation at 5 uM incubated for 24 hrs by PI staining based flow cytometry analysis (reference value: 37.38 %). In kind it is functional.
The test system of experiment [10] is Ramos. Kind of experiment: Induction of cell cycle arrest in human Ramos cells assessed as G2/M phase accumulation at 5 uM incubated for 24 hrs by PI staining based flow cytometry analysis (reference value: 20.96 %). The format is functional.
The test system of experiment [11] is Ramos. Kind of experiment: Induction of cell cycle arrest in human Ramos cells assessed as subG1 phase accumulation at 5 uM incubated for 24 hrs by PI staining based flow cytometry analysis (reference value: 2.53 %). The format is functional.
The target in experiment [12] is T1, Tyrosine-protein kinase BTK. Briefly: Inhibition of BTK in human Ramos cells assessed as reduction in BTK phosphorylation at Tyr223 residue at 10 uM incubated for 24 hrs by Western blot analysis. In kind it is cell-based.
Experiment [13] has the same target. Briefly: Inhibition of BTK in human Ramos cells assessed as reduction in PLCgamma2 phosphorylation at Tyr557 residue at 3 uM incubated for 24 hrs by Western blot analysis. The format is cell-based.
The target is the same in experiment [14]. Kind of experiment: Inhibition of BTK in human Ramos cells assessed as reduction in BTK phosphorylation at Tyr223 residue at 10 uM incubated for 4 hrs by Western blot analysis relative to control. The format is cell-based.
Experiment [15] has the same target. Kind of experiment: Inhibition of BTK in human Ramos cells assessed as reduction in BTK phosphorylation at Tyr223 residue at 10 uM incubated for 4 hrs followed by compound wash-out and measured upto 24 hrs by Western blot analysis. The format is cell-based.
Experiment [16] has as its target Epidermal growth factor receptor (Homo sapiens, UniProt P00533). Kind of experiment: Inhibition of EGFR (unknown origin) by ADP-Glo assay.
Experiment [17] addresses T2, Tyrosine-protein kinase ITK/TSK (Homo sapiens, UniProt Q08881).
T2 sequence (Q08881 whole entry): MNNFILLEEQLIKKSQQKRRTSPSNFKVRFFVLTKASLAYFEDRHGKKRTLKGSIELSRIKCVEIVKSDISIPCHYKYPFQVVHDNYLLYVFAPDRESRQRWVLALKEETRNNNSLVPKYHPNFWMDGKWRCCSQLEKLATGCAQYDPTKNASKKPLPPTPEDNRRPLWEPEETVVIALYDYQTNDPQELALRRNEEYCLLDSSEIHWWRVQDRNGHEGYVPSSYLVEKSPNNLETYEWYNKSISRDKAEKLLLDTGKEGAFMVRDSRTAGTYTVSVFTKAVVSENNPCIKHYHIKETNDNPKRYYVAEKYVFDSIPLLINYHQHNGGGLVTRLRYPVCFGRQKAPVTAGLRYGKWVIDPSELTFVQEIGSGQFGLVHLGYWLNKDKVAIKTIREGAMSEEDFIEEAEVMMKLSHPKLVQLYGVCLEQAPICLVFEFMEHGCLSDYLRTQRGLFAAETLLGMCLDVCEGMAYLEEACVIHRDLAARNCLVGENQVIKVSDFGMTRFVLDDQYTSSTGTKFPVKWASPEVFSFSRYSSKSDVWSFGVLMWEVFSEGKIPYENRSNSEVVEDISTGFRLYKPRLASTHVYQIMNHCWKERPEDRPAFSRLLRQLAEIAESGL
Kind of experiment: Inhibition of ITK (unknown origin) by ADP-Glo assay.

Experiment [18] concerns the target Tyrosine-protein kinase Blk (Homo sapiens, UniProt P51451). Briefly: Inhibition of BLK (unknown origin) by ADP-Glo assay.
Experiment [19] concerns the target Proto-oncogene tyrosine-protein kinase Src (Homo sapiens, UniProt P12931). Kind of experiment: Inhibition of SRC (unknown origin) by ADP-Glo assay.
In experiment [20] the target is T1, Tyrosine-protein kinase BTK. Kind of experiment: Inhibition of BTK in human TMD8 cells assessed as reduction in cell proliferation incubated for 24 hrs by CCK-8 assay. The format is cell-based.

T1 sequence (Q06187 whole entry): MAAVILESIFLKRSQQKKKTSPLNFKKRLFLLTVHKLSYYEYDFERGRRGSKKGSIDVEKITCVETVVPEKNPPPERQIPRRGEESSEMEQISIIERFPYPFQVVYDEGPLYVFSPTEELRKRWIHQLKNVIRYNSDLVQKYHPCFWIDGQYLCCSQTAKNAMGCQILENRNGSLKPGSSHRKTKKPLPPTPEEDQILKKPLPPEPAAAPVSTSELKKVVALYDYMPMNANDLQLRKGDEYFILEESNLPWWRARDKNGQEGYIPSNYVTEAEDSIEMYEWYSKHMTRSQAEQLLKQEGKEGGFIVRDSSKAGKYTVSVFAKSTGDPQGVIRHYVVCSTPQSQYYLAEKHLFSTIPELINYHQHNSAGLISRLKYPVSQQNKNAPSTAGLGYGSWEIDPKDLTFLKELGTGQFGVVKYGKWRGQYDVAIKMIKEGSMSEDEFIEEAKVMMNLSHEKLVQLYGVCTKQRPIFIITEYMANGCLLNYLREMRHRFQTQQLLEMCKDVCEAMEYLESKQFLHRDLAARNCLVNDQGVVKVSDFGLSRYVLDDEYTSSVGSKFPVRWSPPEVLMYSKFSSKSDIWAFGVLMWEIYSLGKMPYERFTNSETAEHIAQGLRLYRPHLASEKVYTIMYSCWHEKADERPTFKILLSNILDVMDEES
Chain of Tyrosine-protein kinase Blk (P51451 whole entry): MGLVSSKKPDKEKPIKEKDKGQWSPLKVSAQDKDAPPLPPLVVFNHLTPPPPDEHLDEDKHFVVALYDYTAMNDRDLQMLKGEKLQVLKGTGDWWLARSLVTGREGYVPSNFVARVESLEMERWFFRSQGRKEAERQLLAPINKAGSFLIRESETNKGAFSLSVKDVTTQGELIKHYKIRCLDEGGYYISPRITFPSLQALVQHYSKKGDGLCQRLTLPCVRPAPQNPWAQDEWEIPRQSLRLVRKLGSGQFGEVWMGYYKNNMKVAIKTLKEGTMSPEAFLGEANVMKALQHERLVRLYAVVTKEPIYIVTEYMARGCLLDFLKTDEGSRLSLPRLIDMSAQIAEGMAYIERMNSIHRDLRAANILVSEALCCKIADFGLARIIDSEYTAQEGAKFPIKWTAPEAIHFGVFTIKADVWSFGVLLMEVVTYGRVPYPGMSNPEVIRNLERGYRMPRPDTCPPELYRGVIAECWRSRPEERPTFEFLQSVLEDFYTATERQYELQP
Chain of Epidermal growth factor receptor (P00533 whole entry): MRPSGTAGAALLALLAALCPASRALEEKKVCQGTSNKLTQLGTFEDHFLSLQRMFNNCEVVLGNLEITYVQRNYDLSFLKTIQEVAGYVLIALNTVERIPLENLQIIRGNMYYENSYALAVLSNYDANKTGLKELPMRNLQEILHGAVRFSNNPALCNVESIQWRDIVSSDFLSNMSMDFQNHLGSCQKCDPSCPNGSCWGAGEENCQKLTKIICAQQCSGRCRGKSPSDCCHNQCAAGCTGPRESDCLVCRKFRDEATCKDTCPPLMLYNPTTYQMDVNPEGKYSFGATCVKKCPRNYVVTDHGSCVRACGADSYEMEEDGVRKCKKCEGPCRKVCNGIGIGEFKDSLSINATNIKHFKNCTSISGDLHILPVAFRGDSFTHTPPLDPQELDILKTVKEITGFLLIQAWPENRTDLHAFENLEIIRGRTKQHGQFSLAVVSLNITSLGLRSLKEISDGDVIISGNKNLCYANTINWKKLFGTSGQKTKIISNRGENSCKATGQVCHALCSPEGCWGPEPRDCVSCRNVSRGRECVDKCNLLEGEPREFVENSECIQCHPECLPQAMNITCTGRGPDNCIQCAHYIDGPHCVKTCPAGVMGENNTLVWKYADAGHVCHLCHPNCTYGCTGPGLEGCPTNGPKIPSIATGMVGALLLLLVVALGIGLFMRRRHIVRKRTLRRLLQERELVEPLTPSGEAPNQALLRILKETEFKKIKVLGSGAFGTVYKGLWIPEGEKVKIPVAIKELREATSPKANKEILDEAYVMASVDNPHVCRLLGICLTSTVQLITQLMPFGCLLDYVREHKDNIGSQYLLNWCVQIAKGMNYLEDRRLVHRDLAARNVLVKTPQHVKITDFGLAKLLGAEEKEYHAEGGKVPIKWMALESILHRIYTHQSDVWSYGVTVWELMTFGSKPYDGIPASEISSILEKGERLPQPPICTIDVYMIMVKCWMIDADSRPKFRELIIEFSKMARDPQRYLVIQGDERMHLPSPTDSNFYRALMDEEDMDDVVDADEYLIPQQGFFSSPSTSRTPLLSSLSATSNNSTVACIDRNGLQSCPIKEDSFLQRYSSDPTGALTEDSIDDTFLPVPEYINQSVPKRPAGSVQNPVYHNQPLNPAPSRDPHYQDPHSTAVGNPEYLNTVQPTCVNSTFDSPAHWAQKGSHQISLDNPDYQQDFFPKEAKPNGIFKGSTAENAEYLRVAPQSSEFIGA
Chain of Proto-oncogene tyrosine-protein kinase Src (P12931 2-536 limits assumed): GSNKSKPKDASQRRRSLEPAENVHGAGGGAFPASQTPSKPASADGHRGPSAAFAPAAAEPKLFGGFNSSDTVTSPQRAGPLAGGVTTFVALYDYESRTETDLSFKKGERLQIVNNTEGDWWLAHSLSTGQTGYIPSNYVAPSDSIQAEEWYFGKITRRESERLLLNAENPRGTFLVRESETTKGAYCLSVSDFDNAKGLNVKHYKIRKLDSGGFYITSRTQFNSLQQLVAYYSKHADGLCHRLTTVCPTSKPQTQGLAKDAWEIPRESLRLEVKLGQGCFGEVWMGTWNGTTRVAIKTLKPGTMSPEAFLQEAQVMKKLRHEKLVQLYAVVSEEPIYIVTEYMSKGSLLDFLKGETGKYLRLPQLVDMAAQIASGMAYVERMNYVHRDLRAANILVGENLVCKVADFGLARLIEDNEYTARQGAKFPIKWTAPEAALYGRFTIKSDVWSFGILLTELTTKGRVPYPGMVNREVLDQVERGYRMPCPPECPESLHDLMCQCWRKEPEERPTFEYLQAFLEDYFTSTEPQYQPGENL

Take `C=CC(=O)Nc1cccc(Nc2ncnc(Nc3ccc(-c4ccc(F)nc4)cc3)n2)c1`: the IC50 (commonly the concentration that gives 50% inhibition) with Raji amounted to 3.25 µM; with Ramos [1] it was 59.2 µM. Moreover, in experiment [2], the inhibition (usually the drop in the measured response relative to a control, in per cent) amounted to 46.8%.

`C=CC(=O)Nc1cccc(Nc2ncnc(Nc3ccc(-c4ccc(OC)nc4)cc3)n2)c1` had an inhibition in experiment [2] of 32.7%.

Turning to `C=CC(=O)Nc1cccc(Nc2ncnc(Nc3ccc(C(=O)N4CCCCC4)cc3)n2)c1`, the IC50 with Raji turned out to be 5.14 µM; in the experiment with Ramos [1], 6.14 µM; in experiment [3], 21 nM; in [16], 31 nM; in experiment [17], 2620 nM; in experiment [18] it was 594 nM. In [19], this molecule showed a concentration for half-maximal inhibition (IC50) of 524 nM. Besides, in the experiment with Ramos [4] (Homo sapiens, Ramos, read-out: Activity), the viability at 5 µM is 84.7%. The Activity is on record as 2.1% in the experiment with Ramos [5]; 10.8% in the experiment on Ramos [6]; 2.4% in the experiment on Ramos [7]; 29.23% in the experiment on Ramos [8]; 35.2% in the experiment on Ramos [9]; 25.14% in the experiment with Ramos [10]. Moreover, the Activity with Ramos [11] stood at 10.43%. For the same molecule, the inhibition result in experiment [12], in experiment [13] and in [15] was “Active” throughout. Also, the inhibition in [14] was 100%; in experiment [20] it was “Dose-dependent effect”; in [2], 91.1%.

On to `C/C=C/C(=O)Nc1cccc(Nc2ncnc(Nc3ccc(C(=O)N4CCCCC4)cc3)n2)c1`, for which the figures for the IC50 (in the experiment on Raji; in the experiment with Ramos [1]; in experiment [3]) were 13.8 µM, 13.2 µM and > 1000 nM, respectively. Further, the inhibition in experiment [2] stood at 4.8%.

In the case of `C=CC(=O)N1CCc2ccc(Nc3ncnc(Nc4ccc(C(=O)N5CCCCC5)cc4)n3)cc21`, the IC50 turned out to be 2.84 µM with Raji and 54.3 nM in experiment [3]. Also, the inhibition in [2] came out at 75.8%.

In the case of `C=CC(=O)Nc1cccc(Nc2ncnc(Nc3ccc(-c4ccc(Cl)nc4)cc3)n2)c1`, the half-maximal inhibitory concentration (IC50) in the experiment with Ramos [1] came to 160 µM. Moreover, the inhibition in [2] came to 36.7%.

Consider `C=CC(=O)Nc1cccc(Nc2nc(N)nc(Nc3ccc(Oc4ccccc4)cc3)n2)c1`, for which the IC50 in the experiment with Raji was found to be 8.32 µM; in the experiment with Ramos [1], 20 µM. Further, in [2], the inhibition came out at 17.1%.

As for `C=CC(=O)Nc1cccc(Nc2ncnc(Nc3ccc(-c4cccnc4)cc3)n2)c1`, the IC50 is 12.4 µM in the experiment on Raji and > 100 µM with Ramos [1]. In experiment [2], this molecule yielded an inhibition of 66.6%.

Consider `C=CC(=O)Nc1cccc(Nc2nc(N)nc(Nc3ccc(OCCOC)cc3)n2)c1`, for which the figures for the IC50 in the experiment on Raji and with Ramos [1] were 18.3 µM and 18.9 µM, respectively. The inhibition in experiment [2] amounted to 27.7%.

For `C=CC(=O)Nc1cccc(Nc2ncnc(Nc3ccc(-c4ccc(C)nc4)cc3)n2)c1`, the IC50 in the experiment with Raji came to 13.8 µM. Also, the inhibition in experiment [2] was 55.7%.

With `C=CC(=O)N1CCC[C@@H](n2nc(-c3ccc(Oc4ccccc4)cc3)c3c(N)ncnc32)C1` [IBRUTINIB], the figures for the IC50 in the experiment on Raji and with Ramos [1] were 12.6 µM and 1.35 µM, respectively. For the same molecule, the Activity is recorded as 82.1% with Ramos [4]; 1.9% in the experiment on Ramos [5]; 12.5% in the experiment on Ramos [6]; 3.5% in the experiment on Ramos [7]; 28.72% in the experiment with Ramos [8]; 29.22% with Ramos [9]. The Activity in the experiment with Ramos [10] was 26.95%; in the experiment with Ramos [11] it was 15.11%.

Turning to `C=CC(=O)Nc1cccc(Nc2nc(Cl)nc(Nc3ccc(Oc4ccccc4)cc3)n2)c1`, the figures for the IC50 with Raji and with Ramos [1] were 15.7 µM and 12.3 µM, respectively. Also, the inhibition in experiment [2] turned out to be 7.3%.

On to `C=CC(=O)Nc1cccc(Nc2ncnc(Nc3ccc(C(=O)Nc4ccccn4)cc3)n2)c1`, for which the concentration for half-maximal inhibition (IC50) in the experiment with Raji turned out to be 15.6 µM. In [2], this molecule showed an inhibition of 56.3%.

Regarding `C=CC(=O)Nc1cccc(Nc2ncnc(Nc3ccc(C(=O)Nc4ccc(C)cn4)cc3)n2)c1`, the results for the IC50 in the experiment with Raji and with Ramos [1] were 125 µM and > 100 µM, respectively. Moreover, the inhibition in [2] was 41.6%.

On to `C=CC(=O)Nc1cc(Nc2ncnc(Nc3ccc(C(=O)N4CCCCC4)cc3)n2)ccc1C`, for which the IC50 was 30.6 µM in the experiment on Raji, 48.5 µM with Ramos [1] and 146 nM in [3]. This molecule also yielded an inhibition in experiment [2] of 39.1%.

Turning to `CC#CC(=O)Nc1cccc(Nc2ncnc(Nc3ccc(C(=O)N4CCCCC4)cc3)n2)c1`, the IC50 in the experiment with Raji was 4.62 µM; in the experiment on Ramos [1], 24.4 µM; in experiment [3] it was > 1000 nM. In addition, in experiment [2], the inhibition stood at 8.9%.

Turning to `C=CC(=O)Nc1cccc(Nc2ncnc(Nc3ccc(Oc4ccc(OC)cc4)cc3)n2)c1`, the IC50 in the experiment on Ramos [1] was > 100 µM. The inhibition in experiment [2] stood at 23.4%.

Regarding `C=CC(=O)Nc1cccc(Nc2ncnc(Nc3ccc(OCCOC)cc3)n2)c1`, the IC50 in the experiment with Raji was determined as 105 µM; in the experiment on Ramos [1], 181 µM. Moreover, the inhibition in experiment [2] came out at 57.1%.

In experiment [2], `C=CC(=O)Nc1cccc(Nc2nc(Cl)nc(Nc3ccc(OCCOC)cc3)n2)c1` had an inhibition of 10%.

As for `C=CC(=O)Nc1cccc(Nc2ncnc(Nc3ccc(C(=O)N4CCOCC4)cc3)n2)c1`, the IC50 is 22.2 µM with Raji and 13.2 µM in the experiment with Ramos [1]. The same molecule registered an inhibition in [2] of 77.5%.
